In patent publication US20110091570A1, “Compositions and Devices for Antisepsis and Anticoagulation” (priority 2008, published 2011):
Several values for one entry are separate records, joined by “and”; a condition that tells them apart may be missing. Identical values can stand only once.

What was measured:
D-Dimer = D-Dimer in citrate blood; type: biochemical, human; conditions: Example 7; for D-Dimer: individual subjects 1-11; for D-Dimer, mean value: mean of 11 subjects
Procedure: (§1) Whole blood was taken from 11 volunteers and enriched with trisodium citrate (0.3 mL of a 0.106 molar solution per 3 mL whole blood) (S-Monovette®, Sarstedt, Nümbrecht, Germany). Commercial coagulation tests (as described in Example 6) were performed with the following samples: […]

mice = conditions: transtympanal injection of 0.1%, 1%, and 10% NCT, mice [Ref. 19]; cited from earlier work
[1] = tested on: Staphylococcus aureus, ATCC 25923; assay: Bactericidal activity of NCT with heparin in human whole blood; type: cell-based; conditions: 37° C.
Procedure: FIG. 10 presents a plot of bactericidal activity of 1% NCT with 125 IE/mL heparin in human blood against Staphylococcus aureus (ATCC 25923) at […] and 37° C. Mean values±standard error of the mean of three independent experiments. P<0.01 between NCT and control samples.
Bacteria (Staphylococcus aureus, ATCC 25923 and Escherichia coli, ATCC 11229) grown in tryptic soy broth overnight were washed twice in saline and suspended in human whole blood containing 125 IE/mL heparin. Different volumes of a saline solution of NCT sodium salt were added to the suspension so that the test samples contained 10%, 25%, 50%, and 75% blood. In addition, 100% blood plus 125 IE/mL heparin was tested at which NCT was directly dissolved in blood. The final NCT concentration after mixing blood and NCT solutions was 1% in all samples. Controls contained 100% blood plus 125 IE/mL heparin and 10%, 25%, 50% and 75% blood, respectively, in saline, plus 125 IE/mL heparin without NCT. All of the solutions were incubated at 37° C. and pH 7.36-7.44 (the pH of blood). After 1, 3, 5, 10, 15, 30, 45 and 60 minutes, aliquots of 100 μL were removed and diluted tenfold or 100-fold in 0.6% sodium thiosulfate solution to inactivate the NCT. Aliquots (50 μL) of these dilutions were spread on tryptic soy agar plates. The plates were incubated at 37° C. and colony forming units of bacteria were counted after 24 and 48 hours. […]

rabbit eyes = rabbit eyes [Ref. 13]; cited from earlier work
citrate blood = assay: Activated partial thromboplastin time (aPTT), Pathromtin SL test; type: biochemical, human; conditions: for aPTT / aPTT (sec): Example 6, single volunteer; for Activated partial thromboplastin time (aPTT) / Activated partial thromboplastin time (aPTT), mean value: Example 7; for Activated partial thromboplastin time (aPTT): individual subjects 1-11; for Activated partial thromboplastin time (aPTT), mean value: mean of 11 subjects
Procedure: Whole blood was taken from volunteers and enriched with trisodium citrate (0.3 mL of a 0.106 molar solution per 3 mL whole blood) (S-Monovette®, Sarstedt, Nümbrecht, Germany). Routine coagulation tests were performed on the following samples:
The following commercial coagulation tests were performed according to the prescription of the manufacturer: prothrombin time (PT) was determined using Thromborel® S test (Dade Behring GmbH, Marburg, Germany); activated partial thromboplastin time (aPTT) was determined using Pathromtin* SL test (Dade Behring GmbH, Marburg, Germany); and thrombin time (TT) was determined using BC Thrombin Reagent test (Dade Behring GmbH, Marburg, Germany).
Whole blood was taken from a single volunteer and enriched with trisodium citrate (0.3 mL of a 0.106 molar solution per 3 mL whole blood) (S-Monovette®, Sarstedt, Nümbrecht, Germany). Portions of 1.8 mL citrate blood were mixed with 0.2 mL NCT in 0.9% saline. The following final (after dilution in blood) NCT concentrations were tested separately: 1% (55 mM); 0.5% (27.5 mM); 0.25% (13.75 mM); 0.1% (5.5 mM); 0.05% (2.75 mM); 0.025% (1.375 mM); and 0.01% (0.55 mM). A control without NCT was performed in parallel. The following commercial coagulation tests were performed according to the prescription of the manufacturer: prothrombin time (PT) was determined using Thromborel® S test (Dade Behring GmbH, Marburg, Germany), activated partial thromboplastin time (aPTT) was determined using Pathromtin* SL test (Dade Behring GmbH, Marburg, Germany); thrombin time (TT) was determined using BC Thrombin Reagent test (Dade Behring GmbH, Marburg, Germany); and fibrinogen was determined using Multifibren* U test (Dade Behring GmbH, Marburg, Germany).
as §1

Swiss mice = assay: Intraperitoneal injection in Swiss mice; type: in vivo; conditions: 1% NCT i.p., a further study
Antithrombin III = Antithrombin III in citrate blood; type: biochemical, human; conditions: Example 7; for Antithrombin III: individual subjects 1-11; for Antithrombin III, mean value: mean of 11 subjects
Procedure: as §1

## O=S(=O)(O)CCNCl [NCT, N-chlorotaurine]
D-Dimer; 0.01% NCT
  D-Dimer: 209 µg/L and 195 µg/L and 340 µg/L and 143 µg/L and 50 µg/L and 174 µg/L and 241 µg/L and 155 µg/L and 132 µg/L and 191 µg/L and 149 µg/L
  D-Dimer, mean value: 179.9 µg/L
D-Dimer; 0.025% NCT
  D-Dimer: 200 µg/L and 179 µg/L and 316 µg/L and 122 µg/L and 50 µg/L and 153 µg/L and 227 µg/L and 143 µg/L and 126 µg/L and 172 µg/L and 132 µg/L
  D-Dimer, mean value: 165.5 µg/L
mice
  damage of the inner ear: did not cause damage of the inner ear
[1]; 1% NCT dissolved in 100% blood plus 125 IE/mL heparin
  bactericidal activity in blood: no significant bactericidal activity was detected
[1]; 1% NCT in 10%, 25%, 50% and 75% blood plus 125 IE/mL heparin
  bactericidal activity in blood: demonstrated bactericidal activity
Rabbit eyes
  tolerability in topical and localized applications: relatively safe and well-tolerated
Citrate blood; Example 5, 1% NCT final concentration in citrate blood
  activated partial thromboplastin time: above the test limits
Citrate blood; 0.01% (0.55 mM) NCT final
  aPTT: 30.6 s
Citrate blood; 0.025% (1.375 mM) NCT final
  aPTT: 37.7 s
Citrate blood; 0.05% (2.75 mM) NCT final
  aPTT: 71.3 s
Citrate blood; 0.1% (5.5 mM) NCT final
  aPTT: 371.4 s
Citrate blood; 0.25% (13.75 mM) NCT final
  aPTT (sec): >limit
Citrate blood; 0.5% (27.5 mM) NCT final
  aPTT (sec): >limit
Citrate blood; 1% (55 mM) NCT final
  aPTT (sec): >limit
Citrate blood; 0.01% NCT
  Activated partial thromboplastin time (aPTT): 39 sec (2×) and 41 sec and 32 sec and 47 sec and 37 sec (2×) and 35 sec and 40 sec and 36 sec and 31 sec
  Activated partial thromboplastin time (aPTT), mean value: 37.6 s
Citrate blood; 0.025% NCT
  Activated partial thromboplastin time (aPTT): 93 sec and 113 sec and 49 sec and 238 sec and 142 sec and 129 sec and 91 sec (2×) and 167 sec and 70 sec and 71 sec
  Activated partial thromboplastin time (aPTT), mean value: 114.0 s
Swiss mice
  tolerated intraperitoneal injection: tolerated up to one mL 1% NCT
Antithrombin III; 0.01% NCT
  Antithrombin III: 92% and 79% and 101% and 85% and 82% and 81% and 94% and 75% and 95% and 80% and 84%
  Antithrombin III, mean value: 86.2%
Antithrombin III; 0.025% NCT
  Antithrombin III: 90% and 81% and 101% and 79% (3×) and 80% and 87% and 73% and 94% and 78%
  Antithrombin III, mean value: 83.7%
